Measured values as given in patent publication US12318488B2, “Solid dosage form production” (University of Central Lancashire, priority 2018, dated 2025).

Experiments:
Assay type in all cases: physicochemical
[1] = Drug content analysis via HPLC of extruded filaments and 3D printed tablets; conditions: percentage recovery of the active ingredient
Description: Filaments were prepared with the target concentration of components as detailed in Table III. 10 g of the dry ingredients (% weights according to Table III) was blended with 2 g of distilled non-ionised water (temporary plasticiser) using a mortar and pestle. The resulting blends were fed to a hot melt extruder at 90° C. and mixed at 100 rpm. A Thermo Scientific HAAKE MiniCTW hot melt extruder (Karlsruhe, Germany) was used to prepare the filaments. The filaments were dried for 1 hour at 100° C. in a drying and heating chamber (Binder Inc., series ED, Tuttinglen, Germany) and then used in 3D printing using the methodology described in Example 2 (i.e., nozzle temperature of 150° C.).
A HPLC method was developed and validated in order to assess the assay of the active substances in the extruded filaments and the 3D printed tablets. Each sample was accurately weighed (approximately 5 mg) and placed in a 1000 ml volumetric flask and dissolved in a mixture of water:acetonitrile:methanol (80:10:10). The solutions were then filtered through an Econofltr 0.2 μm syringe (Agilent Technologies Ltd., Cheadle, UK) and analysed by HPLC.
Lisinopril dihydrate, indapamide, rosuvastatin calcium and amlodipine content was assessed using Agilent UV-HPLC 1260 series (Agilent Technologies, Germany) equipped with a synergy max column (250×4.6 mm, 4 μm particle size), at temperature of 50° C. The analysis was carried out at 210 nm wavelength, flow rate 1 mL/min, injection volume was 100 μl and run time of 35 minutes. The mobile phase consisted of acetonitrile (A) and buffer pH3 (B) (which was prepared by adjustment of the pH of distilled water with phosphoric acid) according to the gradient in Table IV. Drug assay of the multi-layer polypill I (prepared from the uni-matrix) was assessed based on the assumption that each layer corresponds to an equal part of the tablet.

[2] = HPLC analysis of hydrocortisone content in extruded filament and FDM 3D printed tablet at different drug loadings; conditions: for Drug potency in filament average ± SD (n = 3): Eudragit EPO filament, HME 90° C.; for Drug potency in FDM 3D printed average ± SD (n = 3): nozzle 135° C.
Description: Filaments were compounded according to the formulation in Table VIII using Thermo Fisher Haake MiniCTW compounder. The extruder speed was set at 35 rpm and temperature at 90° C.
Tablets were constructed with the pre-prepared filaments using a commercial FDM 3D printer equipped with 0.4 mm nozzle size. The templates used to print the tablets were designed in a caplet shape using Autodeski 3ds Maxi Design 2012 software version 14.0 (Autodesk, Inc., USA). The design was saved in a stereo-lithography (.stl) file format and was imported to the 3D software, MakerWare Version 3.9.1.1143 (Makerbot Industries, LLC., USA). Tablets were printed using modified settings of the software for PLA: as follows: type of printer: Replicator 2×; resolution: standard; speed of extruder 90 mm/s while extruding and 150 mm/s while traveling; infill: 100%; height of the layer: […]. No supports or rafts were utilized. The temperatures for the nozzle and build plate of the 3D printer were 135° C. and 60° C. respectively. Blue Scotch painter's tape was applied to the build platform to facilitate the adherence of the printed object during FDM 3D printing.
• Hydrocortisone content was assessed using HPLC using the following conditions: • Mobile phase: water:acetonitrile 1:1. • Stationary phase: Phenomenex® column Synergi Polar RP column with particle size 4 μm with 80 Å • pores, length of 250 mm • Column temperature: 35° C. • Injection Volume: 10 μL. • Flow rate: 1 mL/min • Detection: UV, 254 nm
The blend powder, the extruded filament or the printed tablet were placed into a 500 mL volumetric flask along with HCl. The flasks were sonicated for 30 minutes, followed by allowing the solutions to cool back to room temperature (approximately 30 minutes). A 10 mL syringe was filled with the resulting solution. A filter was added to the syringe; the first 5 mL was discarded, the second 5 mL used to fill a HPLC vial.

[3] = HPLC analysis of API content in filaments and 3D printed tablets after hot melt extrusion and FDM 3D printing; conditions: for Residual Percentage (potency of drug following HME): Filament; for Residual Percentage (potency of drug following HME and FDM 3D printing): Tablets
Description: Filaments containing individual drugs at different concentration were produced to achieve the individual target dose of each model drug. A Thermo Scientific HAAKE MiniCTW hot melt extruder (Karlsruhe, Germany) was used to prepare the filaments. Blank (drug-free) and individual drug loaded filaments were prepared by blending 10 g of dry ingredients (composition according to Table I) with additional 2 g of distilled water (temporary plasticiser) (Table 1) using mortar and pestle. This blend mixture was then fed to the hot melt extruder at 90° C. and mixed at 100 rpm, nozzle size of 1.5 mm. The filaments were extruded at the same temperature at 35 rpm. The extruded filaments were dried at 100° C. at 0% RH for 1 hour in a FD240 Binder heating chamber (Tuttlingen, Germany). For comparison purposes, a filament was also extruded without water at an extrusion temperature of 180° C. and a mixing rate of 100 rpm.
The tablets printed were designed using Autodesk® 3ds Max Design 2016 software version 18.0 (Autodesk, Inc., USA). The designs were then imported to the computer software in stereolithographic (STL) format. The extruded filaments were printed by a Makerbot 2×3D printer (Makerbot Industries, NY, USA) fitted with 0.4 mm nozzle and controlled by Simplify 3D software version 4.0 (Cincinnati, OH, USA). Printing took place using nozzle and building plate temperatures of 150 and 40° C. respectively. The tablets were printed following a concentric fill pattern and 100% infill with a layer thickness of 166 μm. For comparison reasons, tablets (without addition of water) were printed following the same settings as above but at nozzle temperature of 210° C.
The HPLC analysis was performed using Agilent 1260 series UV-HPLC (Agilent Technologies, Germany) equipped with a Synergi Polar column (250×4.6 mm, 4 μm particle size) (Phenomenex, Macclesfield, UK) at 35° C. The analysis was carried out at a detection wavelength of 254 nm, flow rate of 1 mL/min, injection volume of 100 μL and a 4 minute run time. The mobile phase consisted of a 1:1 mixture of solvent A (acetonitrile) and solvent B (water).
For theophylline, the same UV-HPLC system and column were used as detailed above for hydrocortisone. The mobile phase constituted of 10 mM solution of ammonium acetate buffer, methanol and acetonitrile (86:7:7). Analysis was carried out at a wavelength of 272 nm, temperature of 40° C., flow rate of 1 ml/min, injection volume of 5 μL and a run time of 7 min.
In order to examine the effect of hot melt extrusion (HME) and FDM 3D printing on the integrity of the active pharmaceutical ingredient (API), API-loaded filaments were analysed for API content post drying as well as in the 3D printed tablets. Samples (API loaded filaments or tablets) were accurately weighed and placed in 250 mL of 1:1 water:acetonitrile mixture for 2 hour under sonication. The solutions were filtered through 0.22 μm Millex-GP syringe filters (Merck Millipore, USA) and prepared for HPLC analysis.

[4] = 3D printed at nozzle temperature 150° C.
[5] = HME 90° C., dried 1 hour at 100° C.
[6] = no temporary plasticiser, 180° C. for HME
[7] = temporary plasticiser (water), 90° C. for HME
[8] = no temporary plasticiser, 180° C. for HME followed by 210° C. for 3D-printing
[9] = temporary plasticiser, 90° C. for HME followed by 150° C. for 3D-printing
[10] = 3D printed at nozzle temperature 150° C., in %
[11] = HME 90° C., dried 1 hour at 100° C., in %

SMILES: CCOC(=O)C1=C(COCCN)NC(C)=C(C(=O)OC)C1c1ccccc1Cl (centres unmarked) [Amlodipine besylate, amlodipine besylate]
- Drug contents in tablets, Amlodipine [1, 4]: 90.68 ± 2.28
- Drug contents in filament, Amlodipine [1, 5]: 97.89 ± 1.94

SMILES: C[C@]12CCC(=O)C=C1CC[C@@H]1[C@@H]2[C@@H](O)C[C@@]2(C)[C@H]1CC[C@]2(O)C(=O)CO [Hydrocortisone]
- Drug potency in filament average ± SD (n = 3) ([2]; Drug Concentration 1%): 85.97 ± 0.14%
- Drug potency in FDM 3D printed average ± SD (n = 3) ([2]; Drug Concentration 1%): 75.13 ± 0.62%
- Drug potency in filament average ± SD (n = 3) ([2]; Drug Concentration 5%): 92.25 ± 0.21%
- Drug potency in FDM 3D printed average ± SD (n = 3) ([2]; Drug Concentration 5%): 95.4 ± 4.3%
- Drug potency in filament average ± SD (n = 3) ([2]; Drug Concentration 10%): 99 ± 0.34%
- Drug potency in FDM 3D printed average ± SD (n = 3) ([2]; Drug Concentration 10%): 98.2 ± 0.45%
- Residual Percentage (potency of drug following HME) [3, 6]: 19.98%
- Residual Percentage (potency of drug following HME) ([3]; no temporary plasticiser, 180° C. for HME, listed as hydrocortisone): 20%
- Residual Percentage (potency of drug following HME) [3, 7]: 100.9%
- Residual Percentage (potency of drug following HME) ([3]; temporary plasticiser (water), 90° C. for HME, listed as hydrocortisone): 100%
- Residual Percentage (potency of drug following HME and FDM 3D printing) [3, 8]: 3.02%
- Residual Percentage (potency of drug following HME and FDM 3D printing) ([3]; no temporary plasticiser, 180° C. for HME followed by 210° C. for 3D-printing, listed as hydrocortisone): 3.02%
- Residual Percentage (potency of drug following HME and FDM 3D printing) [3, 9]: 48.6%
- Residual Percentage (potency of drug following HME and FDM 3D printing) ([3]; temporary plasticiser, 90° C. for HME followed by 150° C. for 3D-printing, listed as hydrocortisone): 48.6%

SMILES: CC1Cc2ccccc2N1NC(=O)c1ccc(Cl)c(S(N)(=O)=O)c1 (centres unmarked) [Indapamide, indapamide]
- Drug contents in tablets, Indapamide [1, 10]: 96.06 ± 2.06
- Drug contents in filament, Indapamide [1, 11]: 93.32 ± 1.67

SMILES: NCCCC[C@H](N[C@@H](CCc1ccccc1)C(=O)O)C(=O)N1CCC[C@H]1C(=O)O [Lisinopril dihydrate]
- Drug contents in tablets, Lisinopril [1, 4]: 87.8 ± 1.5
- Drug contents in filament, Lisinopril [1, 5]: 93.9 ± 1.66

SMILES: CC(C)c1nc(N(C)S(C)(=O)=O)nc(-c2ccc(F)cc2)c1/C=C/[C@@H](O)C[C@@H](O)CC(=O)[O-].CC(C)c1nc(N(C)S(C)(=O)=O)nc(-c2ccc(F)cc2)c1/C=C/[C@@H](O)C[C@@H](O)CC(=O)[O-].[Ca+2] [Rosuvastatin calcium, rosuvastatin calcium]
- Drug contents in tablets, Rosuvastatin [1, 10]: 95.4 ± 2.37
- Drug contents in filament, Rosuvastatin [1, 11]: 98.2 ± 1.09

SMILES: Cn1c(=O)c2[nH]cnc2n(C)c1=O [Theophylline]
- Residual Percentage (potency of drug following HME) [3, 6]: 100.61%
- Residual Percentage (potency of drug following HME) [3, 7]: 100%
- Residual Percentage (potency of drug following HME and FDM 3D printing) [3, 8]: 100.53%
- Residual Percentage (potency of drug following HME and FDM 3D printing) [3, 9]: 100.2%
